Laboratory results taken from patent publication US6469060B2, “Compositions based on iodopropynyl-and formaldehyde donor compounds and to their use as preservatives” (Air Liquide Sante (International), priority 1997, dated 2002).

Experiments:
[1] = Formaldehyde emission of N-formals, Dräger tubes (Example 9); type: physicochemical; settings: pure N-formal, 1 g overnight in covered 400 ml beaker; for formaldehyde content: Dräger tubes (10 strokes)
Experimental: For this purpose, 1 g of each of the N-formals was left to stand overnight in a 400 ml beaker covered with para-film. On the following day, the formaldehyde content was then measured using Dräger tubes (10 strokes) as described in Example 1.
The formaldehyde content was 15 ppm (2 strokes 3 ppm) in 3,3′-methylenebis(tetrahydro-2H-1,3-oxazine) and 25 ppm (2 strokes 5 ppm) in Mar 71™. Preparations of 80% by weight of each N-formal and 20% by weight of 1,2-propylene glycol display a clearly different behavior. For example, the addition of 1,2-PLG to 3,3′-methylenebis(tetrahydro-2H-1,3-oxazine) leads to a reduction in the formaldehyde content to form 1.5 to 2.5 ppm (20 strokes) and the addition to Mar 71™ to a reduction to 10 ppm (5 strokes 5 ppm), the formaldehyde content being determined as described above for pure N-formals.

[2] = Stability and compatibility of IPBC with various N-formals, storage at +40° C. in clear glass (Example 2); type: physicochemical; settings: discoloration and IPBC degradation
Experimental: The stability and compatibility of IPBC in compositions containing 3% by weight of IPBC, from 80 to 97% by weight of N-formals and […] by weight of 1,2-PLG were determined as a function of the storage time after the solutions had been stored at a temperature of +40° C. in clear glass.
The initially clear, colorless to slightly yellowish solutions became discoloured to varying degrees after storage for three months at a temperature of +40° C. Only the compositions based on IPBC and Mar 71 retained their clear, slightly yellowish appearance.
A summary of the development of the IPBC content, determined by means of HPLC (IPBC starting content 3% by weight) in the compositions investigated as a function of the storage period, is given in Table IV.

| Structure (SMILES) | formaldehyde content, reading at 2 strokes [1] | formaldehyde content [1] | Compatibility with IPBC [2] |
| --- | --- | --- | --- |
| C1COCN(CN2CCCOC2)C1 [3,3′-methylenebis(tetrahydro-2H-1,3-oxazine), reference compound] | 3 ppm | 15 ppm | – |
| OCCN1CN(CCO)CN(CCO)C1 [Grotan BK TM, 1,3,5-tris(hydroxyethyl)hexahydrotriazine] | – | – | incompatible |
| CC1CN(CN2COC(C)C2)CO1 (centres unmarked) [Mar 71™, 3,3′-methylenebis(5-methyloxazolidine)] | 5 ppm | 25 ppm | – |
